Experiment [1] has as its target T1, MMP-9 (Homo sapiens, UniProt P14780).
T1 construct: made in house; host or cells: MMP-9-transfected HT1080 cells (spent media)
Kind of experiment: In vitro MMP inhibition, IC50 determination (fluorogenic substrate I). The class given is biochemical. As to conditions: read-out: MMP-9 (IC-50).

The target of experiment [2] is T2, MMP-13 (Homo sapiens, UniProt P45452).
T2 construct: made in house; host or cells: baculovirus / insect cells
The description is as above. The class given is biochemical. The note with it: read-out: MMP-13 (IC-50).

SMILES strings stand for the structures. Like-named read-outs stand apart in the source and are kept apart here.

T1 sequence (P14780 107-707 limits assumed): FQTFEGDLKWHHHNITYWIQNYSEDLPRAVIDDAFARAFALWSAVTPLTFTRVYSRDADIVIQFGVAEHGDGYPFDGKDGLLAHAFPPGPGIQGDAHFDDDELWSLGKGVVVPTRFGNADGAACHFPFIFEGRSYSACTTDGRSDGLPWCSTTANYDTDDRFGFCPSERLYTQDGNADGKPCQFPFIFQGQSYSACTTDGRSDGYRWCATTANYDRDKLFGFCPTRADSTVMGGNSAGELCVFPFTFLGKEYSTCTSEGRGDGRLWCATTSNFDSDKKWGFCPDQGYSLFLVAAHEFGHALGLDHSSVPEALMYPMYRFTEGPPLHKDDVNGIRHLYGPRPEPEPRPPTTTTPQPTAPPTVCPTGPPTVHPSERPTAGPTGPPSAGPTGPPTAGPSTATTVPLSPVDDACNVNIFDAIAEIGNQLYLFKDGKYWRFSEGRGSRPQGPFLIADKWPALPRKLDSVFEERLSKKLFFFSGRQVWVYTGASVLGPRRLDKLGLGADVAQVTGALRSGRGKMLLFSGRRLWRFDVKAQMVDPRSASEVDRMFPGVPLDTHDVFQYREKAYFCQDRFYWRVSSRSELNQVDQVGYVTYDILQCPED

Regarding `CCOCCCc1ccc(N2CCN(S(=O)(=O)C3(C(=O)NO)CCN(CCOC)CC3)CC2)cc1` [Example 179], the IC50 in experiment [1] (value in parenthesis) came to 3.39 nM; in experiment [2] (value in parenthesis) it was 0.53 nM.

Regarding `COCCCc1ccc(N2CCN(S(=O)(=O)C3(C(=O)NO)CCN(CCOC)CC3)CC2)cc1` [Example 180], the IC50 in experiment [1] (value in parenthesis) is 2.25 nM; in experiment [2] (value in parenthesis), 1.21 nM.

Turning to `COCCN1CCC(C(=O)NO)(S(=O)(=O)N2CCN(c3ccc(CC4CCCCC4)cc3)CC2)CC1` [Example 181], the IC50 in experiment [1] (value in parenthesis) worked out at 45.6 nM; in experiment [2] (value in parenthesis), 18 nM.

Turning to `COCCN1CCC(C(=O)NO)(S(=O)(=O)N2CCN(c3ccc(CCC4CCCC4)cc3)CC2)CC1` [Example 182], the figures for the IC50 in experiment [1] (value in parenthesis) and in experiment [2] (value in parenthesis) were 1.72 nM and 0.14 nM, respectively.

In the case of `COCCN1CCC(C(=O)NO)(S(=O)(=O)N2CCN(c3ccc(CC4CCC4)cc3)CC2)CC1` [Example 183], the IC50 in experiment [1] (value in parenthesis) was found to be 1.67 nM; in experiment [2] (value in parenthesis) it was 2.76 nM.

`CCOc1ccc(N2CCN(S(=O)(=O)C3(C(=O)NO)CCN(CCOC)CC3)CC2)cc1F` [Example 184]: the IC50 in experiment [1] (value in parenthesis) is 2.79 nM; in experiment [2] (value in parenthesis), 2.26 nM.

As for `CCCOc1ccc(N2CCN(S(=O)(=O)C3(C(=O)NO)CCN(CCOC)CC3)CC2)cc1F` [Example 185], the IC50 in experiment [1] (value in parenthesis) was 1.19 nM; in experiment [2] (value in parenthesis), 1.63 nM.

Regarding `COCCN1CCC(C(=O)NO)(S(=O)(=O)N2CCN(c3ccc(C#N)cc3)CC2)CC1` [Example 186], the IC50 in experiment [1] (value in parenthesis) amounted to 55.8 nM; in experiment [2] (value in parenthesis), 2.63 nM.

Turning to `CCc1cnc(N2CCN(S(=O)(=O)C3(C(=O)NO)CCN(CCOC)CC3)CC2)nc1` [Example 187], the IC50 in experiment [1] (value in parenthesis) came to 155 nM; in experiment [2] (value in parenthesis), 47.3 nM.

On to `CCC(CC)Cc1ccc(N2CCN(S(=O)(=O)C3(C(=O)NO)CCN(CCOC)CC3)CC2)cc1` [Example 188], for which the IC50 in experiment [1] (value in parenthesis) was 33.7 nM; in experiment [2] (value in parenthesis), 4.01 nM.

Regarding `CCCCOc1ccc(N2CCN(S(=O)(=O)C3(C(=O)NO)CCN(C(=O)CCC)CC3)CC2)cc1` [Example 290], the IC50 was 1.42 nM in experiment [1] (value in parentheses) and 0.35 nM in experiment [2] (value in parentheses).
